# Results reported in patent EP4458977A1, “SELF-ASSEMBLING PEPTIDE AMPHIPHILES AS RETROVIRAL TRANSDUCTION ENHANCERS” (Max-Planck-Gesellschaft zur Förderung der Wissenschaften …, priority 2023, dated 2024).
# “Also recorded” adds a separate entry of the source. Where a SMILES comes first, the peptide text is derived from it. Where no end group is shown, it is not given here. [ ]: non-standard residue; d: D form. The star is where a group is joined. X2 = CC/C=C\C/C=C\C/C=C\CCCCCCCC(=O)*; Palmitoyl = CCCCCCCCCCCCCCCC(=O)*
# Legend:
# [1] = Zeta-potential measurement (dynamic light scattering); assay type: physicochemical
# Method: Zeta-potential: 60 µL of the peptides (1 mg mL-1) were diluted in 600 µL, 1 mM KCI solution and placed in a disposable folded capillary cuvette. All zeta-potential measurements were conducted by dynamic light scattering technology (Zetasizer, Malvern Instruments) and in triplicates for each sample. The derived count rate of the zeta potential measurement was used as information on the light scattering intensity and turbidity of the sample as a further indicator for microscopic aggregation.
# HIV-1 = conditions: for Infectivity enhancing N fold at 1.3 µM: relative to virus only; for enhancement of HIV-1 infection / transduction (in words): 6.5 µM, 1.3 µM, 0.26 µM;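 for all read-outs here: TZM-bl reporter cells exposed to HIV-1 with peptide fibrils, infection read out as β-galactosidase luminescence, compared with virus alone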
# Method: HIV-1 Infection Assay with TZM-bl cells: The effect of peptide fibrils on HIV-1 infection was studied via a luminescence assay for β-galactosidase, which was reported by TZM-bl cells upon infection. The HIV-1 infection assay was conducted in three technical replicates and repeated in three independent experiments unless stated otherwise.
# [2] = TEM of peptide assemblies (fibril formation / assembly); assay type: physicochemical; conditions: for TEM morphology (in words): 1 mg/mL in PBS; for Assembly without hydrophob residue: corresponding peptide without hydrophobic moiety; for Assembly: peptide amphiphile
# Method: The peptides were predissolved in DMSO to a concentration of 10 mg/mL. The fibril formation was induced by further diluting the solution to a final incubation concentration of 650 µM or 1 mg/mL in PBS as indicated in the text and incubated for 1 d (1 day) at rt (room temperature, 20 °C - 25 °C). Other concentrations as described herein were achieved by further dilution of preformed fibrils.
# (§1) Transmission electron microscopy (TEM) measurements, Thioflavin (ThT), zeta-potential measurements for fibril characterization were prepared and conducted according to prior art procedures. […] Fibrils were defined as distinct, if no visible structures could be identified in fluorescence and brightfield microscopy.
# HeLa cells = assay: Confocal laser scanning microscopy and degradation study with PA library and HeLa cells; assay type: cell-based; conditions: for association with cellular membranes: 2 µg added to 20.000 HeLa cells, 30 min; for degradability (in words) / Degradability / % (rel. to initial particles > 10 µm^2): HeLa cells; for degradability (in words): 3 days; for Degradability / % (rel. to initial particles > 10 µm^2): 3 d relative to 30 min; for aggregate number decreases / degraded in presence of HeLa cells within 3 days / aggregate number increases: d3 relative to d0
# Method: In general, the procedure for determine whether a PA is degraded or not, is conducted by confocal laser scanning microscopy of Proteostat stained PAs which are added to Hela cells (2 µg peptide added to 20.000 cells). Microscopy is conducted at day 0 (d0, after 30 min of incubation) and at day 3 (d3, after 72 h of incubation). The number of aggregates >10 µm^2 is counted via 3D object counter in imaged in an area of 1008 µm × 1008 µm.
# A PA is considered to be degradable if the number and the size of aggregates are reduced after 3 days. The efficiency is determined by the percentual degradation (aggregate number at d3 / aggregate number at d0). For the number of aggregation three technical replicates were evaluated for each sample. A large deviation represents a nonhomogeneous spatial distribution of aggregates.
# Confocal laser scanning microscopy and degradation study with PA library and HeLa cells: Confocal laser scanning microscopy studies were performed for the visualization of the cell-PA interaction. HeLa cells were seeded one day prior to conducting the assay (20,000/well) in an 8-well IBIDI slide. […] The nucleus of the HeLa cells was stained with Hoechst 33342 (NucBlue™, Thermo Fisher Scientific). The peptide solution mixture was transferred to the HeLa cells and incubated for 30 min at 37°C before washing three times with PBS. […] For the evaluation of aggregate degradation, the samples were further incubated at 37°C for 3 d and analyzed without any additional washing step. […] The number of aggregates were determined by counting aggregates larger than the threshold 10 µm^2 in an area of 1008 × 1008 µm and repeated in three technical triplicates.
# [3] = ATR-FT-IR determination of β-sheet content; assay type: physicochemical; conditions: 1 mg/mL in PBS lyophilized; integral at 1630 cm^-1 relative to 1650-1700 cm^-1
# Method: ATR-FT-IR: ATR-IR spectra acquisition and the calculation of β-sheet content were conducted according prior art procedures. Briefly, FT-IR spectra of solid samples were recorded after lyophilization of fibril solutions using a Bruker Tensor II spectrometer equipped with a diamond crystal as ATR element with a spectral resolution of 2 cm^-1, each spectrum was an average of 64 scans. The data was processed with Origin software. β-sheet amount was determined by calculating the integral of the peak at 1630 cm-1 (β-sheet) relative to the integral between 1650-1700 cm-1 (native structure) from the 2nd derivative of the FT-IR spectra.
# [4] = Fluorescence microscopy of ThT-stained fibrils (µm-sized aggregates); assay type: physicochemical; conditions: 1 mg/mL stained with 50 µM ThT
# Method: as §1
# Fluorescence microscopy: 1 µL Fibrils (1 mg mL^-1) were stained with 9 µL, 50 µM ThT. 10 µL of the stained fibrils (0.1 mg mL^-1) were placed on a microscopy glass. Fluorescence microscopy measurements were performed on a Leica DMi8 microscope with 10x air objective and equipped with a Leica MC170 HD camera with a filter setting λem = 527/30 nm upon excitation at λex = 480/40 nm) and processed with the Leica LASX software.
Molecule,zeta-potential (in words) [1],Infectivity enhancing N fold at 1.3 µM (HIV-1) [N fold],TEM morphology (in words) [2],Assembly without hydrophob residue [2],Assembly [2],association with cellular membranes (HeLa cells),degradability (in words) (HeLa cells),Degradability / % (rel. to initial particles > 10 µm^2) (HeLa cells) [%],aggregate number decreases / degraded in presence of HeLa cells within 3 days (HeLa cells),"enhances infectivity at 1.3 µM concentration, times more efficient compared to virus only infection (HIV-1) [times]",enhancement of HIV-1 infection / transduction (in words) (HIV-1),β-sheet amount [3] [%],"fluorescent, µm-sized aggregates (ThT staining) [4]",aggregate number increases (HeLa cells) [%],TEM morphology (in words) ([2]; listed as NFYLQVNKINK),infectivity enhancement at 1.3 µM concentration compared to virus only infection (in words) (HIV-1)
CC/C=C\C/C=C\C/C=C\CCCCCCCC(=O)N[C@H](C(=O)N[C@H](C(=O)N[C@H](C(=O)N[C@@H](C)C(=O)N[C@@H](C)C(=O)N[C@@H](C)C(=O)N[C@@H](CCCCN)C(=O)N[C@@H](CCCCN)C(=O)N[C@@H](CCCCN)C(N)=O)C(C)C)C(C)C)C(C)C [Pat9] (X2-VVVAAAKKK-NH2),almost neutral zeta-potential,1±0,failed to form fibrils in aqueous medium,No,No,–,–,–,–,–,–,–,–,–,–,–
"CCCCCCCCCCCCCCCC(=O)N[C@@H](C)C(=O)N[C@H](C(=O)N[C@@H](C)C(=O)N[C@@H](CCCCN)C(=O)N[C@@H](CCCCN)C(=O)N[C@@H](CCCCN)C(N)=O)C(C)C [Pat21, C16-AVAKKK-NH2] (Palmitoyl-AVAKKK-NH2)",–,2±0,fibrillar morphologies,No,Yes,association with cellular membranes,can be degraded; also recorded: not efficiently degradable; also recorded: degradable PA,68,84%,2,no infectivity enhancement can be observed,45,"fluorescent, µm-sized aggregates",–,–,–
"CCCCCCCCCCCCCCCC(=O)N[C@@H](C(=O)N[C@@H](C(=O)N[C@@H](C(=O)N[C@H](C)C(=O)N[C@H](C)C(=O)N[C@H](C)C(=O)N[C@H](CCCCN)C(=O)N[C@H](CCCCN)C(=O)N[C@H](CCCCN)C(N)=O)C(C)C)C(C)C)C(C)C [Pat14, C16-vvvaaakkk-NH2] (Palmitoyl-[dV][dV][dV][dA][dA][dA][dK][dK][dK]-NH2)",–,7±1,fibrillar morphologies,No,Yes,association with cellular membranes,is not degraded; also recorded: cannot be degraded; also recorded: non-degradable PA,-116,–,7,–,49,"fluorescent, µm-sized aggregates",116,–,–
NFYLQVNKINK-NH2 [Pat46],–,–,fibrillar morphologies,–,–,association with cellular membranes,not efficiently degradable; also recorded: non-degradable PA,–,stays also similar,–,potent enhancers of HIV-1 infection,49,"fluorescent, µm-sized aggregates",–,unexpectedly forming fibrils by themselves,–
C16-disulfide-CVVVAAAKKK-NH2 (not fully specified (residue 1); printed as C16-disulfide-CVVVAAAKKK-NH2) [Pat2],–,4±2,fibrillar morphologies,No,Yes,no visible association with cellular membranes,–,–,–,4,weak enhancers of HIV-1 infection,57,"fluorescent, µm-sized aggregates",–,–,–
"CCCCCCCCCCCCCCCC(=O)N[C@@H](CCCCN)C(=O)N[C@H](C(=O)N[C@H](C(=O)N[C@@H](CO)C(=O)N[C@@H](Cc1ccccc1)C(=O)N[C@@H](CCCCN)C(N)=O)[C@@H](C)CC)[C@@H](C)CC [Pat32, C16-KIISFK-NH2] (Palmitoyl-KIISFK-NH2)",–,2±1,fibrillar morphologies,No,Yes,association with cellular membranes,cannot be degraded; also recorded: not efficiently degradable; also recorded: non-degradable PA,-84,–,–,–,46,"fluorescent, µm-sized aggregates",84,–,does not enhances infectivity
CCCCCCCCCCCCCCCC(=O)N[C@@H](CC(N)=O)C(=O)N[C@@H](Cc1ccccc1)C(=O)N[C@@H](Cc1ccc(O)cc1)C(=O)N[C@@H](CC(C)C)C(=O)N[C@@H](CCC(N)=O)C(=O)N[C@H](C(=O)N[C@@H](CC(N)=O)C(=O)N[C@@H](CCCCN)C(=O)N[C@H](C(=O)N[C@@H](CC(N)=O)C(=O)N[C@@H](CCCCN)C(N)=O)[C@@H](C)CC)C(C)C [Pat27] (Palmitoyl-NFYLQVNKINK-NH2),–,5±1,fibrillar morphologies,Yes,Yes,association with cellular membranes,cannot be degraded; also recorded: not efficiently degradable; also recorded: non-degradable PA,-123,–,5,–,60,"fluorescent, µm-sized aggregates",123,–,–
"CCCCCCCCCCCCCCCC(=O)N[C@@H](Cc1c[nH]c2ccccc12)C(=O)N[C@@H](CCC(=O)O)C(=O)N[C@@H](C)C(=O)N[C@@H](CC(C)C)C(=O)N[C@@H](CCCCN)C(=O)N[C@@H](CCCCN)C(N)=O [Pat17, C16-WEALKK-NH2] (Palmitoyl-WEALKK-NH2)",–,1±0,not forming fibrils; also recorded: amorphous aggregate morphology,No,No,no association with cellular membranes,–,–,–,–,no infectivity enhancement can be observed,38,"fluorescent, µm-sized aggregates",–,–,does not enhance infectivity
